Laboratory results reported in patent US20250136638A1, “9(11)-UNSATURATED NEUROACTIVE STEROIDS AND THEIR METHODS OF USE” (SAGE THERAPEUTICS, INC., priority 2018, published 2025).

These compounds were tested against rat brain cortical membranes ([35S]-TBPS binding, GABA receptor complex) (assay: Steroid inhibition of [35S]-TBPS binding). Conditions: 3 nM [35S]-TBPS, in the presence of 5 mM GABA.
Protocol: [^35S]-t-Butylbicyclophosphorothionate (TBPS) binding assays using rat brain cortical membranes in the presence of 5 mM GABA has been described (Gee et al, J. Pharmacol. Exp. Ther. 1987, 241, 346-353; Hawkinson et al, Mol. Pharmacol. 1994, 46, 977-985; Lewin, A. H et al., Mol. Pharmacol. 1989, 35, 189-194).
Briefly, cortices are rapidly removed following decapitation of carbon dioxide-anesthetized Sprague-Dawley rats (200-250 g). The cortices are homogenized in 10 volumes of ice-cold 0.32 M sucrose using a glass/teflon homogenizer and centrifuged at 1500×g for 10 min at 4° C. The resultant supernatants are centrifuged at 10,000×g for 20 min at 4° C. to obtain the P2 pellets. The P2 pellets are resuspended in 200 mM NaCl/50 mM Na—K phosphate pH 7.4 buffer and centrifuged at 10,000×g for 10 min at 4° C. This washing procedure is repeated twice and the pellets are resuspended in 10 volumes of buffer. Aliquots ([…]) of the membrane suspensions are incubated with 3 nM [^35S]-TBPS and […] aliquots of test drug dissolved in dimethyl sulfoxide (DMSO) (final 0.5%) in the presence of 5 mM GABA. The incubation is brought to a final volume of 1.0 mL with buffer. Nonspecific binding is determined in the presence of […] and ranged from 15 to 25%. Following a 90 min incubation at room temp, the assays are terminated by filtration through glass fiber filters (Schleicher and Schuell No. 32) using a cell harvester (Brandel) and rinsed three times with ice-cold buffer. Filter bound radioactivity is measured by liquid scintillation spectrometry. Non-linear curve fitting of the overall data for each drug averaged for each concentration is done using Prism (GraphPad). […] The concentration of test compound producing 50% inhibition (IC50) of specific binding and the maximal extent of inhibition (Imax) are determined for the individual experiments with the same model used for the overall data and then the means±SEM.s of the individual experiments are calculated.
Various compounds are or can be screened to determine their potential as modulators of [^35S]-TBPS binding in vitro. These assays are or can be performed in accordance with the above.

SMILES | IC50 [nM]
COC[C@@]1(O)CC[C@]2(C)C3=CC[C@]4(C)[C@@H](C(=O)Cn5cc(C#N)cn5)CC[C@H]4[C@@H]3CC[C@@H]2C1 [Example 17, 1-(2-((3R,5R,8S,10S,13S,14S,17S)-3-hydroxy-3-(methoxymethyl)-10,13-dimethyl-2,3,4,5,6,7,8,10,12,13,14,15,16,17-tetradecahydro-1H-cyclopenta[a]phenanthren-17-yl)-2-oxoethyl)-1H-pyrazole-4-carbonitrile] | 10 to 100
C[C@@]1(O)CC[C@]2(C)C3=CC[C@]4(C)[C@@H](C(=O)Cn5cc(C#N)cn5)CC[C@H]4[C@@H]3CC[C@H]2C1 [Example 2, 1-(2-((3R,5S,8S,10S,13S,14S,17S)-3-hydroxy-3,10,13-trimethyl-2,3,4,5,6,7,8,10,12,13,14,15,16,17-tetradecahydro-1H-cyclopenta[a]phenanthren-17-yl)-2-oxoethyl)-1H-pyrazole-4-carbonitrile] | 10 to 100
COC[C@@]1(O)CC[C@]2(C)C3=CC[C@]4(C)[C@@H](C(C)=O)CC[C@H]4[C@@H]3CC[C@@H]2C1 [Example 16, 1-((3R,5R,8S,10S,13S,14S,17S)-3-hydroxy-3-(methoxymethyl)-10,13-dimethyl-2,3,4,5,6,7,8,10,12,13,14,15,16,17-tetradecahydro-1H-cyclopenta[a]phenanthren-17-yl)ethan-1-one] | 100 to 1000
C[C@@]1(O)CC[C@]2(C)C3=CC[C@]4(C)[C@@H](C(=O)Cn5nccn5)CC[C@H]4[C@@H]3CC[C@@H]2C1 [Example 13, 1-((3R,5R,8S,10S,13S,14S,17S)-3-hydroxy-3,10,13-trimethyl-2,3,4,5,6,7,8,10,12,13,14,15,16,17-tetradecahydro-1H-cyclopenta[a]phenanthren-17-yl)-2-(2H-1,2,3-triazol-2-yl)ethan-1-one] | 10 to 100
C[C@@]1(O)CC[C@]2(C)C3=CC[C@]4(C)[C@@H](C(=O)Cn5cc(C#N)cn5)CC[C@H]4[C@@H]3CC[C@@H]2C1 [Example 9, 1-(2-((3R,5R,8S,10S,13S,14S,17S)-3-hydroxy-3,10,13-trimethyl-2,3,4,5,6,7,8,10,12,13,14,15,16,17-tetradecahydro-1H-cyclopenta[a]phenanthren-17-yl)-2-oxoethyl)-1H-pyrazole-4-carbonitrile] | 10 to 100
Cc1nnnn1CC(=O)[C@H]1CC[C@H]2[C@@H]3CC[C@H]4C[C@](C)(O)CC[C@]4(C)C3=CC[C@]12C [Example 5, 1-((3R,5S,8S,10S,13S,14S,17S)-3-hydroxy-3,10,13-trimethyl-2,3,4,5,6,7,8,10,12,13,14,15,16,17-tetradecahydro-1H-cyclopenta[a]phenanthren-17-yl)-2-(5-methyl-1H-tetrazol-1-yl)ethan-1-one] | 100 to 1000
C[C@@]1(O)CC[C@]2(C)C3=CC[C@]4(C)[C@@H](C(=O)Cn5ccnn5)CC[C@H]4[C@@H]3CC[C@H]2C1 [Example 6, 1-((3R,5S,8S,10S,13S,14S,17S)-3-hydroxy-3,10,13-trimethyl-2,3,4,5,6,7,8,10,12,13,14,15,16,17-tetradecahydro-1H-cyclopenta[a]phenanthren-17-yl)-2-(1H-1,2,3-triazol-1-yl)ethan-1-one] | 100 to 1000
C[C@@]1(O)CC[C@]2(C)C3=CC[C@]4(C)[C@H](C(=O)Cn5cc(C#N)cn5)CC[C@H]4[C@@H]3CC[C@H]2C1 [Example 3, 1-(2-((3R,5S,8S,10S,13S,14S,17R)-3-hydroxy-3,10,13-trimethyl-2,3,4,5,6,7,8,10,12,13,14,15,16,17-tetradecahydro-1H-cyclopenta[a]phenanthren-17-yl)-2-oxoethyl)-1H-pyrazole-4-carbonitrile] | 1000 to 10000
Cc1nnnn1CC(=O)[C@H]1CC[C@H]2[C@@H]3CC[C@@H]4C[C@](C)(O)CC[C@]4(C)C3=CC[C@]12C [Example 11, 1-((3R,5R,8S,10S,13S,14S,17S)-3-hydroxy-3,10,13-trimethyl-2,3,4,5,6,7,8,10,12,13,14,15,16,17-tetradecahydro-1H-cyclopenta[a]phenanthren-17-yl)-2-(5-methyl-1H-tetrazol-1-yl)ethan-1-one] | 100 to 1000
Cc1nnn(CC(=O)[C@H]2CC[C@H]3[C@@H]4CC[C@H]5C[C@](C)(O)CC[C@]5(C)C4=CC[C@]23C)n1 [Example 4, 1-((3R,5S,8S,10S,13S,14S,17S)-3-hydroxy-3,10,13-trimethyl-2,3,4,5,6,7,8,10,12,13,14,15,16,17-tetradecahydro-1H-cyclopenta[a]phenanthren-17-yl)-2-(5-methyl-2H-tetrazol-2-yl)ethan-1-one] | 100 to 1000
C[C@@]1(O)CC[C@]2(C)C3=CC[C@]4(C)[C@@H](C(=O)Cn5ccnn5)CC[C@H]4[C@@H]3CC[C@@H]2C1 [Example 12, 1-((3R,5R,8S,10S,13S,14S,17S)-3-hydroxy-3,10,13-trimethyl-2,3,4,5,6,7,8,10,12,13,14,15,16,17-tetradecahydro-1H-cyclopenta[a]phenanthren-17-yl)-2-(1H-1,2,3-triazol-1-yl)ethan-1-one] | 100 to 1000
CC(=O)[C@H]1CC[C@H]2[C@@H]3CC[C@H]4C[C@](C)(O)CC[C@]4(C)C3=CC[C@]12C [Example 1, 1-((3R,5S,8S,10S,13S,14S,17S)-3-hydroxy-3,10,13-trimethyl-2,3,4,5,6,7,8,10,12,13,14,15,16,17-tetradecahydro-1H-cyclopenta[a]phenanthren-17-yl)ethan-1-one] | 100 to 1000
C[C@@]1(O)CC[C@]2(C)C3=CC[C@]4(C)[C@@H](C(=O)Cn5nccn5)CC[C@H]4[C@@H]3CC[C@H]2C1 [Example 7, 1-((3R,5S,8S,10S,13S,14S,17S)-3-hydroxy-3,10,13-trimethyl-2,3,4,5,6,7,8,10,12,13,14,15,16,17-tetradecahydro-1H-cyclopenta[a]phenanthren-17-yl)-2-(2H-1,2,3-triazol-2-yl)ethan-1-one] | 100 to 1000
CCOC[C@@]1(O)CC[C@]2(C)C3=CC[C@]4(C)[C@@H](C(C)=O)CC[C@H]4[C@@H]3CC[C@@H]2C1 [Example 15, 1-((3R,5R,8S,10S,13S,14S,17S)-3-(ethoxymethyl)-3-hydroxy-10,13-dimethyl-2,3,4,5,6,7,8,10,12,13,14,15,16,17-tetradecahydro-1H-cyclopenta[a]phenanthren-17-yl)ethan-1-one] | 100 to 1000
Cc1nnn(CC(=O)[C@H]2CC[C@H]3[C@@H]4CC[C@@H]5C[C@](C)(O)CC[C@]5(C)C4=CC[C@]23C)n1 [Example 10, 1-((3R,5R,8S,10S,13S,14S,17S)-3-hydroxy-3,10,13-trimethyl-2,3,4,5,6,7,8,10,12,13,14,15,16,17-tetradecahydro-1H-cyclopenta[a]phenanthren-17-yl)-2-(5-methyl-2H-tetrazol-2-yl)ethan-1-one] | 10 to 100
CC(=O)[C@H]1CC[C@H]2[C@@H]3CC[C@@H]4C[C@](C)(O)CC[C@]4(C)C3=CC[C@]12C [Example 8, 1-((3R,5R,8S,10S,13S,14S,17S)-3-hydroxy-3,10,13-trimethyl-2,3,4,5,6,7,8,10,12,13,14,15,16,17-tetradecahydro-1H-cyclopenta[a]phenanthren-17-yl)ethan-1-one] | 10 to 100
CCOC[C@@]1(O)CC[C@]2(C)C3=CC[C@]4(C)[C@@H](C(C)=O)CC[C@H]4[C@@H]3CC[C@H]2C1 [Example 14, 1-((3R,5S,8S,10S,13S,14S,17S)-3-(ethoxymethyl)-3-hydroxy-10,13-dimethyl-2,3,4,5,6,7,8,10,12,13,14,15,16,17-tetradecahydro-1H-cyclopenta[a]phenanthren-17-yl)ethan-1-one] | 1000 to 10000
